Data: PMC11334571, “EpCAM-targeted betulinic acid analogue nanotherapy improves therapeutic efficacy and induces anti-tumorigenic immune response in colorectal cancer tumor microenvironment” (Journal of Biomedical Science, 2024)

Columns and labels:
[1] = system: CRC tumor microenvironment; experiment: Cytokines (ELISA) and immune cells (flow cytometry) in CRC tumor microenvironment; type: in vivo; details: CRC mice, 24 h and 48 h
Experimental: Colorectal tissues were isolated from the CRC-bearing mice before and after treatment with 2c, 2cNP, and Apt-2cNP, followed by washing with ice-cold PBS. Colons were then minced into small pieces and agitated with predigestion buffer (HBSS, 10 mM HEPES, 5 mM EDTA, 1 mM DTT, 5% FBS) for 20 min in a 37 °C incubator-shaker. The single cells suspension from the colonic tissues was prepared using a 100 µm cell strainer. The remaining tissue pieces collected from the cell strainer were then cut into finer fragments and treated with digestion solution (HBSS, 10 mM EDTA, 0.5 mg/ml collagenase D, 3 mg/ml dispase II and 5% FBS) in a 37 °C incubator-shaker for 30 min. The dissociated cells from the tissues were collected again through a 100 µm cell strainer. All the single-cell suspensions were pooled together and centrifuged using Percoll gradient. The lymphocytes were suspended in 4 ml of 40% Percoll solution and layered over 12 ml of 80% Percoll solution. Centrifugation was then carried out without a break at 1000 g for 20 min. The T cells were collected from the liquid interphase and resuspended in PBS or RPMI 1640 medium for further experiments.
To analyze cytokine levels (TNFα, IFNγ, and IL-10) and all other ELISA assays, sandwich ELISA kits were used. […] The reading was monitored using a multi-plate reader and then compared with the standard curve for actual measurement of the cytokine level. […]

CRC cancer tissue = experiment: Gene expression by qPCR in CRC tumor tissue; type: in vivo, mice; details: CRC mouse model
Experimental: Gene expression analysis by quantitative real-time polymerase chain reaction (qPCR) is widely used in molecular biology and genetics research. qPCR allows the detection and quantification of specific RNA transcripts, providing insights into the expression levels of genes under various conditions or in different cell types or tissues. The expression of several genes related to apoptosis, autophagy, DNA synthesis, and inflammatory pathways were analyzed after treatment with 2c, 2cNP, and Apt-2cNP to understand the molecular mechanism behind their cytotoxic effects and to determine differences between aptamer-conjugated and unconjugated nanoparticles. Total RNA from CRC cancer tissue before and after treatment was isolated after completion of treatment time using TRIzol, following the manufacturer’s protocol. The RNA was checked for quality by measuring the […] ratio and quantified in a NanoDrop instrument. Then, cDNAs were prepared using RevertAid First Strand cDNA synthesis kit (ThermoFisher) followed by amplified using SYBR Green Master Mix (BioRad) in a thermal cycler (Veriti 96-well, Applied Biosystems, Massachusetts, USA). Relative transcript abundance values obtained from the instrument were plotted in bar diagrams. A total of 12 genes (caspase 3, Bcl-2, Bcl-XL, Bax, Atg5, LC3B, Beclin, p62, NF-κB, APC, p53, and TOP2) were analyzed for each sample. Sequences of the primers used (both forward primer and reverse primer) for each gene are in Supplementary Table T2.

HT-29 cells = experiment: Colony formation assay; type: cell-based, human; details: HT-29, treated every 3 days for 12–14 days
Experimental: The colony formation assay, also known as the clonogenic assay, is a cell biology technique used to evaluate the ability of individual cells to undergo unlimited division and form colonies. This assay is commonly employed in cancer research, radiation biology, and drug screening studies to assess cells' proliferative potential and sensitivity to various treatments or conditions. A clonogenic assay was conducted here to evaluate the inhibitory effect of the free drug and nanoencapsulated therapies on the tumor-initiating capacity or colony formation potential of the colorectal cancer cells. About 500 cells were seeded for both the cell lines HT-29 and HCT116 in each well of a 12-well plate, followed by incubation overnight. The cells were treated with 2c, 2cNP, and Apt-2cNP every 3 days for a total of 12–14 days except for the control groups. After completion of drug incubation, the treated medium was withdrawn, and the cells were washed with PBS. 10% acetic acid (in methanol) was used as a fixation buffer, and colonies were stained with crystal violet solution (0.5% crystal violet in 25% methanol) and washed with PBS three times to remove excess dye. […] After imaging, the crystal violet stained colonies were dissolved in 10% acetic acid solution for 15 min under shaking conditions, and the absorbance of the supernatant was detected using a plate reader at 510 nm.

DMH-induced CRC = experiment: In vivo antitumor efficacy, Ki67 immunohistochemistry of colon; set-up: species or system Swiss albino mice; dose or concentration left out as unconfirmed; details: CRC mice
Experimental: Sprague–Dawley (SD) rats (body weight = 140–160 g) and Swiss albino mice (body weight = 20–25 g) of either sex (male:female = 1:1) were selected for the chemical-induced colorectal carcinoma model. The study plan was prepared as per the guidelines of the Committee for the Purpose of Control and Supervision of Experiments on Animals (CPCSEA), India (JU-AEC; Registration Number: 1805/GO/Re/S/15/CPCSEA) and was sanctioned by the Animal Ethics Committee (AEC), Jadavpur University, (Protocol approval. no.: AEC/PHARM/1701/3/2018). The animals were procured from the National Institute of Nutrition (Hyderabad, India) and were habituated in housing conditions of 25 °C ± 1 °C temperature, 55% ± 5% relative humidity, and normal day/night photoperiod for at least 2 weeks before conducting any experiment. For the development of CRC-bearing mice, Dimethylhydrazine (DMH) was injected intraperitoneally at a dose of 20 mg/kg body weight once a week for 12 weeks. In contrast, for generating CRC-bearing rats, DMH was administered intraperitoneally at a dose of 25 mg/kg body weight once a week for 9 weeks, as described previously.
Evaluating in vivo antitumor efficacy with histopathological observations is essential to preclinical studies in cancer research and drug development. […] Ki67-positive and -negative cells were counted in microscopic images taken after staining using QuPath-0.3.2 software.

[2] = Pharmacokinetic evaluation; type: in vivo; details: CRC-bearing mice, intravenous 25 mg/kg, plasma 2c
Experimental: Pharmacokinetic evaluation informs the time course of drug absorption, distribution, metabolism, and elimination (ADME) within the body. It is a crucial aspect of drug development and is vital in understanding how a drug behaves in vivo. 2c, 2cNP, and Apt-2cNP were injected separately into CRC-bearing mice through intravenous injection (dose: 25 mg/kg). Blood samples were withdrawn at 4 h, 8 h, 10 h, 12 h, 24 h, 48 h, 72 h, and 96 h post-injection, and plasma concentrations of 2c for all samples were determined using LC–MS following a previously described method. A plasma concentration vs time curve was generated using GraphPad Prism (version 5.0). Cmax and Tmax were determined directly from the curve. AUC, AUMC, and AUC0–∞ were calculated using the trapezoidal method. t1/2, MRT, and clearance values were calculated using standard formulas.

For `C=C(C)[C@@H]1CC[C@]2(C(=O)O)CC[C@]3(C)[C@H](CC[C@@H]4[C@@]5(C)CC[C@H](OC(=O)Cn6cc(CO)nn6)C(C)(C)[C@@H]5CC[C@]43C)[C@@H]12` [2c, (3S)-3-[2-(4-hydroxymethyl-1H-1,2,3-triazol-1-yl)acetyloxy]-lup-20(29)-en-28-oic acid], the “Percentages of CD4 and CD8 T cells in TME” value [1] was “did not change”, the “Topoisomerase-II RNA level” value (CRC cancer tissue; 24 h and 48 h after treatment) was “time-dependent decrease” and the “RNA expression of anti-apoptotic genes (Bcl-2 and Bcl-XL)” value (CRC cancer tissue; 24 h and 48 h treatment) was “decrease”. The “RNA expression of pro-apoptotic genes (caspase 3 and Bax)” value (CRC cancer tissue; 24 h and 48 h treatment) was “time-dependent increase”, the “RNA expression of autophagy-related genes (Atg5, LC3B, Beclin)” value (CRC cancer tissue; 24 h or 48 h after treatment) was “time-dependent increase” and the p62 expression (CRC cancer tissue; 24 h or 48 h after treatment) was “decrease”. The “Inhibition of colony formation” value (HT-29 cells) was “moderate prohibition in colony formation”, the “Ki67-positive cells in colon” value (DMH-induced CRC) was 58.88 ± 1.2% and the “AUC 0-∞” value [2] was 380 ± 44 ng·h/mL. For the same compound, the AUC last [2] was 376 ± 42 ng·h/mL, the AUMC [2] was 8381 ± 1644 ng.h2/ml and the Clearance [2] was 333 ± 30 mL/h. The Cmax [2] was 23.5 ± 0.55 ng/mL, the MRT [2] was 22.3 ± 1.72 h and the Tmax [2] was 1 min. The Vd [2] was 2.88 ± 0.15 L and the t1/2 [2] was 6 ± 0.5 h.
